The text below walks through data of patent publication US12441762B2, “Hepatitis c virus NS3/4A protease inhibitors” (priority 2019, dated 2025).

The structures appear in SMILES notation.

Test [1] deals with T1, HCV NS3/4A protease D168A variant (Hepatitis C virus genotype 1a, UniProt P27958, C1185S/D1194A).
T1 construct: His-tag (cleaved yes); made in house; host or cells: Escherichia coli BL21(DE3), PET28a vector
The test can be described thus: biochemical. In kind it is biochemical. On the procedure:
(§1) The HCV GT1a NS3/4A protease gene described in the Bristol Myers Squibb patent was synthesized by GenScript and cloned into a PET28a expression vector. Cys159 was mutated to a serine residue to prevent disulfide bond formation and facilitate crystallization. The D168A gene was engineered using the site-directed mutagenesis protocol from Stratagene. Protein expression and purification were carried out as previously described.
(§2) Km constants for GT1 and D168A protease were previously determined. […] Inner filter effect corrections were applied to the initial velocities (Vo) at each substrate concentration. Vo versus substrate concentration graphs were globally fit to the Michaelis-Menten equation to obtain the Km value.
(§3) For each assay, 2 nM of NS3/4A protease (GT1a and D168A) was pre-incubated at room temperature for 1 h with increasing concentration of inhibitors in assay buffer (50 mM Tris, 5% glycerol, 10 mM DTT, 0.6 mM LDAO, and 4% dimethyl sulfoxide, pH 7.5). Inhibition assays were performed in non-binding surface 96-well black half-area plates (Corning) in a reaction volume of 60 μL. […] Three independent data sets were collected for each inhibitor with each protease construct.

For test [2], the target named is T2, wild-type HCV NS3/4A protease (GT1a) (Hepatitis C virus genotype 1a, UniProt P27958, C1185S).
T2 construct: His-tag (cleaved yes); made in house; host or cells: Escherichia coli BL21(DE3), PET28a vector
The test can be described thus: biochemical. The format is biochemical. The procedure:
as §1, §2, §3

T2 sequence (P27958 1027-1208 C1185S): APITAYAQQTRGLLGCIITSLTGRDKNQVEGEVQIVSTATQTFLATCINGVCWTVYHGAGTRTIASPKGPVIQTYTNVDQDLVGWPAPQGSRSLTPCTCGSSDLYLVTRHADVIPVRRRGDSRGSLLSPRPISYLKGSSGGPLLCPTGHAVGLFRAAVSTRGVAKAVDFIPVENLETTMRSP
T1 sequence (P27958 1027-1208 C1185S/D1194A): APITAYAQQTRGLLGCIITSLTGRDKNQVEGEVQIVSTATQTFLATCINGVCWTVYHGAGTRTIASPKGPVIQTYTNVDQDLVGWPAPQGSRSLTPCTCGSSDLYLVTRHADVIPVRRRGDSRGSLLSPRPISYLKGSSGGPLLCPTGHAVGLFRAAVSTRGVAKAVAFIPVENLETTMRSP

Consider `COc1ccc2nc(C(F)(F)F)c(O[C@@H]3C[C@H]4C(=O)N[C@]5(C(=O)NS(=O)(=O)C6(C)CC6)C[C@H]5/C=C\CCCCC[C@H](NC(=O)O[C@@H]5CCC[C@H]5F)C(=O)N4C3)nc2c1` [NR02-09, (1R,2R)-2-Fluorocyclopentyl ((2R,6S,13aS,14aR,16aS,Z)-2-((7-methoxy-3-(trifluoromethyl)quinoxalin-2-yl)oxy)-14a-(((1-methylcyclopropyl)sulfonyl)carbamoyl)-5,16-dioxo-1,2,3,5,6,7,8,9,10,11,13a,14,14a,15,16,16a-hexadecahydrocyclopropa[e]pyrrolo[1,2-a][1,4]diazacyclopentadecin-6-yl)carbamate], for which the Ki (in general, the equilibrium dissociation constant of an inhibitor or competing ligand from its target) in test [1] worked out at 18.9 ± 3.6 nM; in test [2] it was 8 ± 1.8 nM.

In the case of `COc1ccc2nc(C)c(O[C@@H]3C[C@H]4C(=O)N[C@]5(C(=O)NS(=O)(=O)C6(C)CC6)C[C@H]5/C=C\CCCCC[C@H](NC(=O)OC5CCC5)C(=O)N4C3)nc2c1` [NR01-127, Cyclobutyl ((2R,6S,13aS,14aR,16aS,Z)-2-((7-methoxy-3-methylquinoxalin-2-yl)oxy)-14a-(((1-methylcyclopropyl)sulfonyl)carbamoyl)-5,16-dioxo-1,2,3,5,6,7,8,9,10,11,13a,14,14a,15,16,16a-hexadecahydrocyclopropa[e]pyrrolo[1,2-a][1,4]diazacyclopentadecin-6-yl)carbamate], the Ki in test [1] was 52.4 ± 9 nM; in test [2], 0.3 ± 0.2 nM.

Regarding `COc1ccc2nc(C(F)(F)F)c(O[C@@H]3C[C@H]4C(=O)N[C@]5(C(=O)NS(=O)(=O)C6(C)CC6)C[C@H]5/C=C\CCCCC[C@H](NC(=O)O[C@H](C)C5CC5)C(=O)N4C3)nc2c1` [NR02-34, (R)-1-Cyclopropylethyl ((2R,6S,13aS,14aR,16aS,Z)-2-((7-methoxy-3-(trifluoromethyl)quinoxalin-2-yl)oxy)-14a-(((1-methylcyclopropyl)sulfonyl)carbamoyl)-5,16-dioxo-1,2,3,5,6,7,8,9,10,11,13a,14,14a,15,16,16a-hexadecahydrocyclopropa[e]pyrrolo[1,2-a][1,4]diazacyclopentadecin-6-yl)carbamate], the Ki came out at 26.2 ± 0.6 nM in test [1] and 11.8 ± 1.4 nM in test [2].

In the case of `COc1ccc2nc(C(F)(F)F)c(O[C@@H]3C[C@H]4C(=O)N[C@]5(C(=O)NS(=O)(=O)C6(C)CC6)C[C@H]5/C=C\CCCCC[C@H](NC(=O)OCC5(C)CC5)C(=O)N4C3)nc2c1` [NR01-117, (1-Methylcyclopropyl)methyl ((2R,6S,13aS,14aR,16aS,Z)-2-((7-methoxy-3-(trifluoromethyl)quinoxalin-2-yl)oxy)-14a-(((1-methylcyclopropyl)sulfonyl)carbamoyl)-5,16-dioxo-1,2,3,5,6,7,8,9,10,11,13a,14,14a,15,16,16a-hexadecahydrocyclopropa[e]pyrrolo[1,2-a][1,4]diazacyclopentadecin-6-yl)carbamate], the Ki in test [1] was 18.6 ± 2 nM; in test [2], 2.89 ± 0.19 nM.

As for `COc1ccc2nc(C(F)(F)F)c(O[C@@H]3C[C@H]4C(=O)N[C@]5(C(=O)NS(=O)(=O)C6(C)CC6)C[C@H]5/C=C\CCCCC[C@H](NC(=O)OC5CCC5)C(=O)N4C3)nc2c1` [NR01-95, Cyclobutyl ((2R,6S,13aS,14aR,16aS,Z)-2-((7-methoxy-3-(trifluoromethyl)quinoxalin-2-yl)oxy)-14a-(((1-methylcyclopropyl)sulfonyl)carbamoyl)-5,16-dioxo-1,2,3,5,6,7,8,9,10,11,13a,14,14a,15,16,16a-hexadecahydrocyclopropa[e]pyrrolo[1,2-a][1,4]diazacyclopentadecin-6-yl)carbamate], the results for the Ki in test [1] and in test [2] were 29.5 ± 1.8 nM and 8.53 ± 0.87 nM, respectively.

Take `COc1ccc2nc(C)c(O[C@@H]3C[C@H]4C(=O)N[C@]5(C(=O)NS(=O)(=O)C6(C)CC6)C[C@H]5/C=C\CCCCC[C@H](NC(=O)O[C@@H](C)C(C)C)C(=O)N4C3)nc2c1` [NR01-99, (S)-3-Methylbutan-2-yl ((2R,6S,13aS,14aR,16aS,Z)-2-((7-methoxy-3-methylquinoxalin-2-yl)oxy)-14a-(((1-methylcyclopropyl)sulfonyl)carbamoyl)-5,16-dioxo-1,2,3,5,6,7,8,9,10,11,13a,14,14a,15,16,16a-hexadecahydrocyclopropa[e]pyrrolo[1,2-a][1,4]diazacyclopentadecin-6-yl)carbamate]: the Ki in test [1] was found to be 21.7 ± 2.3 nM; in test [2] it was 1.91 ± 0.3 nM.

On to `COc1ccc2nc(C(F)(F)F)c(O[C@@H]3C[C@H]4C(=O)N[C@]5(C(=O)NS(=O)(=O)C6(C)CC6)C[C@H]5/C=C\CCCCC[C@H](NC(=O)OC(C)(C)C(F)(F)F)C(=O)N4C3)nc2c1` [NR01-129, 1,1,1-Trifluoro-2-methylpropan-2-yl ((2R,6S,13aS,14aR,16aS,Z)-2-((7-methoxy-3-(trifluoromethyl)quinoxalin-2-yl)oxy)-14a-(((1-methylcyclopropyl)sulfonyl)carbamoyl)-5,16-dioxo-1,2,3,5,6,7,8,9,10,11,13a,14,14a,15,16,16a-hexadecahydrocyclopropa[e]pyrrolo[1,2-a][1,4]diazacyclopentadecin-6-yl)carbamate], for which the Ki was found to be 15.5 ± 1.8 nM in test [1] and 3.6 ± 0.3 nM in test [2].

On to `COc1ccc2nc(C)c(O[C@@H]3C[C@H]4C(=O)N[C@]5(C(=O)NS(=O)(=O)C6(C)CC6)C[C@H]5/C=C\CCCCC[C@H](NC(=O)OC5CC(F)(F)C5)C(=O)N4C3)nc2c1` [NR01-149, 3,3-Difluorocyclobutyl ((2R,6S,13aS,14aR,16aS,Z)-2-((7-methoxy-3-methylquinoxalin-2-yl)oxy)-14a-(((1-methylcyclopropyl)sulfonyl)carbamoyl)-5,16-dioxo-1,2,3,5,6,7,8,9,10,11,13a,14,14a,15,16,16a-hexadecahydrocyclopropa[e]pyrrolo[1,2-a][1,4]diazacyclopentadecin-6-yl)carbamate], for which the Ki in test [1] is 26 ± 1 nM; in test [2], 0.62 ± 0.3 nM.

On to `COc1ccc2nc(C)c(O[C@@H]3C[C@H]4C(=O)N[C@]5(C(=O)NS(=O)(=O)C6(C)CC6)C[C@H]5/C=C\CCCCC[C@H](NC(=O)O[C@@H](C)C5CC5)C(=O)N4C3)nc2c1` [NR02-25, (S)-1-Cyclopropylethyl ((2R,6S,13aS,14aR,16aS,Z)-2-((7-methoxy-3-methylquinoxalin-2-yl)oxy)-14a-(((1-methylcyclopropyl)sulfonyl)carbamoyl)-5,16-dioxo-1,2,3,5,6,7,8,9,10,11,13a,14,14a,15,16,16a-hexadecahydrocyclopropa[e]pyrrolo [1,2-a][1,4]diazacyclopentadecin-6-yl)carbamate], for which the Ki in test [1] is 31.9 ± 1.8 nM; in test [2], 1.84 ± 0.12 nM.

With `COc1ccc2nc(C)c(O[C@@H]3C[C@H]4C(=O)N[C@]5(C(=O)NS(=O)(=O)C6(C)CC6)C[C@H]5/C=C\CCCCC[C@H](NC(=O)O[C@@H](C)C(F)(F)F)C(=O)N4C3)nc2c1` [NR02-23, (S)-1,1,1-Trifluoropropan-2-yl ((2R,6S,13aS,14aR,16aS,Z)-2-((7-methoxy-3-methylquinoxalin-2-yl)oxy)-14a-(((1-methylcyclopropyl)sulfonyl)carbamoyl)-5,16-dioxo-1,2,3,5,6,7,8,9,10,11,13a,14,14a,15,16,16a-hexadecahydrocyclopropa[e]pyrrolo [1,2-a][1,4]diazacyclopentadecin-6-yl)carbamate], the Ki came out at 40 ± 6 nM in test [1] and 0.74 ± 0.2 nM in test [2].

Turning to `COc1ccc2nc(C(F)(F)F)c(O[C@@H]3C[C@H]4C(=O)N[C@]5(C(=O)NS(=O)(=O)C6(C)CC6)C[C@H]5/C=C\CCCCC[C@H](NC(=O)O[C@H](C)C(F)(F)F)C(=O)N4C3)nc2c1` [NR01-147, (R)-1,1,1-Trifluoropropan-2-yl ((2R,6S,13aS,14aR,16aS,Z)-2-((7-methoxy-3-(trifluoromethyl)quinoxalin-2-yl)oxy)-14a-(((1-methylcyclopropyl)sulfonyl)carbamoyl)-5,16-dioxo-1,2,3,5,6,7,8,9,10,11,13a,14,14a,15,16,16a-hexadecahydrocyclopropa[e]pyrrolo[1,2-a][1,4]diazacyclopentadecin-6-yl)carbamate], the figures for the Ki in test [1] and in test [2] were 17 ± 2.4 nM and 2.8 ± 0.7 nM, respectively.

As to `COc1ccc2nc(C(F)(F)F)c(O[C@@H]3C[C@H]4C(=O)N[C@]5(C(=O)NS(=O)(=O)C6(C)CC6)C[C@H]5/C=C\CCCCC[C@H](NC(=O)OC5CC(F)(F)C5)C(=O)N4C3)nc2c1` [NR01-151, 3,3-Difluorocyclobutyl ((2R,6S,13aS,14aR,16aS,Z)-2-((7-methoxy-3-(trifluoromethyl)quinoxalin-2-yl)oxy)-14a-(((1-methylcyclopropyl)sulfonyl)carbamoyl)-5,16-dioxo-1,2,3,5,6,7,8,9,10,11,13a,14,14a,15,16,16a-hexadecahydrocyclopropa[e]pyrrolo[1,2-a][1,4]diazacyclopentadecin-6-yl)carbamate], the Ki came out at 43.2 ± 6.3 nM in test [1] and 10.9 ± 1.1 nM in test [2].

Turning to `COc1ccc2nc(C)c(O[C@@H]3C[C@H]4C(=O)N[C@]5(C(=O)NS(=O)(=O)C6(C)CC6)C[C@H]5/C=C\CCCCC[C@H](NC(=O)O[C@H](C)C(C)C)C(=O)N4C3)nc2c1` [NR01-119, (R)-3-Methylbutan-2-yl ((2R,6S,13aS,14aR,16aS,Z)-2-((7-methoxy-3-methylquinoxalin-2-yl)oxy)-14a-(((1-methylcyclopropyl)sulfonyl)carbamoyl)-5,16-dioxo-1,2,3,5,6,7,8,9,10,11,13a,14,14a,15,16,16a-hexadecahydrocyclopropa[e]pyrrolo[1,2-a][1,4]diazacyclopentadecin-6-yl)carbamate], the Ki was determined as 23.9 ± 3.5 nM in test [1] and 1.52 ± 0.02 nM in test [2].
